Patent US10577322B2, “5-methoxytryptophan and its derivatives and uses thereof” (National Health Research Institutes, priority 2015, dated 2020)

How the values were obtained:
ligated carotid arteries = assay: Neointima formation model of carotid artery ligation; type: in vivo, mice; details: 100 mg/kg IP 3 times a week, four weeks after ligation
Experimental: Approximately 12-week-old male C57BL/6 wild-type mice ational Laboratory Animal Center, Taiwan) were subjected to a neointima formation model by ligating the left common carotid artery (LCCA). The Institutional. Animal Care and Use Committee of National Health Research Institutes, Taiwan approved all experimental procedures (#NHRI-IACUC-101144-A). Mice were anesthetized with tribromoethanol solution at a dose of 250 mg/kg by IP injection. After assessing the level of anesthesia by checking the pedal reflex, the LCCA was exposed through a midline incision in the neck. […] Following surgery, mice were treated with vehicle (PBS) or 100 mg/kg of 5-MTP (Sigma, M4001) by IP injection 3 times a week. 5-MTP was dissolved in 0.05 N HCl (made in PBS) first, pH adjusted to 7.4 by NaOH, and then a stock solution of 6.5 mg/mL was prepared with PBS. The stock solution was then sterilized by filtering through a 0.22 μm-filter before use. At indicated time points (4, 7, and 28 d after surgery), mice were anesthetized with tribromoethanol solution (500-750 mg/kg), perfused with saline, followed by 10% neutral-buffered-formalin. The contralateral control (right common carotid artery) and ligated LCCA were then carefully dissected, excised, and immersed in 10% formalin before processing and embedding in paraffin. […]

COX-2 [1] = assay: LPS-induced COX-2 expression in peritoneal macrophages (western blot); type: cell-based; details: primary mouse peritoneal macrophages, LPS 8 h
Experimental: For peritoneal macrophage isolation, C57BL/6J mice were injected intraperitoneally with 2 ml of 4% thioglycollate. Four days after injection, the peritoneal cavity was washed with 5 ml of ice-cold RPMI1640 medium, and cells from the peritoneal exudates were collected by centrifugation, and suspended in RPMI1640 medium, then seeded on 15-cm dishes and allowed to adhere for 4 h. Floating cells were washed out, and adherent cells were used as peritoneal macrophages in the experiments. The cells were incubated with or without LPS (100 ng/ml) for the indicated time before each experiment, as in the protocol for the RAW264.7 cells.
Furthermore, peritoneal macrophages were stimulated with LPS with or without 5-MTP. After 8 h, COX-2 protein expression was determined by western blot. The experiments were repeated 3 times with similar results.

COX-2 [2] = assay: COX-2 immunohistochemistry in lung tissues of LPS-treated mice; type: in vivo; details: LPS 60 mg/kg; 12 h, 16 h and 24 h
Experimental: Prior to immunohistochemical detection of COX-2, iNOS, Ly6g, or cleaved caspase-3 in lung sections, sections were deparaffinized with xylene, progressively rehydrated through graded alcohols. Antigen sites were retrieved by heating the sections on slides in pH 8 EDTA antigen. retrieval (Trilogy; Cell Marque Corporation) in electric pressure cooker for 15 min. […] All antibodies described hereafter were diluted in blocking buffer. Sections were incubated at room temperature for 2 h with primary antibody and then washed in PBST. The sections were incubated with primary antibody amplifier quanta (Thermo) for 10 minutes. After rinsing with PBST, the sections were incubated with HRP Polymer Quanto (Thermo) for 10 minutes and washed three times with PBST. COX-2, iNOS, Ly6g and cleaved caspase-3 were visualized by the addition of DAB Quanto Chromogen: Substrate for 3 minutes. Tissues were also counterstained with hematoxylin.
Moreover, paraffin-embedded sections were prepared from lungs of mice injected with 60 mg/kg LPS with or without saline or 5-MTP at 12 h, 16 h and 24 h. COX-2 and inducible nitric oxide synthase (iNOS) protein levels in lung tissues were determined by immunohistochemistry by staining with anti-COX-2 and anti-iNOS antibodies, respectively. The results are shown in FIGS. 6A-6B, in which scale bars represent 100 μm. […]

[3] = Serum 5-MTP level in mice after 5-MTP administration; type: in vivo; details: 5-MTP 23.4 mg/kg
Experimental: To ensure that 5-MTP administration increases serum 5-MTP, we analyzed 5-MTP level at 24 h and 72 h after 5-MTP infusion. Serum 5-MTP concentrations in mice treated with saline or LPS with or without 5-MTP (23.4 mg/kg) at 24 h and 72 h. The error bars denote mean±SD (n=3).

p300 HAT = p300 HAT activity in lung tissues of mice; type: in vivo; details: 8-24 h after LPS, 5-MTP 23.4 mg/kg
Experimental: In addition, p300 HAT activity in lung tissues of mice (n=6 mice/group) at 8-24 h after LPS infusion with or without 5-MTP(23.4 mg/kg) was determined by an assay kit.

NF-κB p65 = assay: Phospho-NF-κB p65 (Ser536) in RAW264.7 cells (immunoblot); type: cell-based, mouse; details: LPS 4 h
Experimental: Furthermore, after pretreating RAW264.7 cells with different concentrations of 5-MTP for 30 min, cells were stimulated with. LPS for 4 h. NF-κB p65, phospho-NF-κB p65 (p-p65) (Ser536) or β-actin was determined by immunoblotting with specific antibodies. Also, peritoneal macrophages were treated with LPS with or without 5-MTP (50 μM) for the indicated time. Phospho-p65 in the lysates was analyzed by an ELISA kit. The results are shown in FIG. 10D, in which the error bars denote mean ±SD (n=3). According to FIGS. 10C-10D, 5-MTP decreased LPS-induced phosphorylation of NF-κB p65 not only in RAW264.7 cells (FIG. 10C) but also in peritoneal macrophages (FIG. 10D).

chemokines = assay: Serum chemokine level in LPS-injected mice (ELISA); type: in vivo; details: 5-MTP 23.4 mg/kg, 24 h
Experimental: Furthermore, chemokine level was measured by ELISA in the serum of saline or LPS-injected mice with or without saline or 5-MTP (23.4 mg/kg) after 24 h (n=10). The results shown in FIG. 8C indicate that LPS-induced elevation of chemokines, CXCL1, MCP-1, RANTES and eotaxin in the serum was blunted by 5-MTP treatment at 24 h.

BALF total cell number = assay: Cell number in bronchoalveolar lavage fluid (trypan blue exclusion); type: in vivo, mice; details: 24 h after LPS
Experimental: Furthermore, bronchoalveolar lavage fluid (BALF) was isolated from mice treated with LPS with or without various concentrations of 5-MTP for 24 h. Cell number in BALF was determined by trypan blue exclusion assay.

COc1ccc2[nH]cc(C[C@H](N)C(=O)O)c2c1 [5-MTP, 5-methoxytryptophan]
intima/media area ratio (ligated carotid arteries): 0.58±0.11
intimal thickening (ligated carotid arteries): reduced
LPS-induced COX-2 expression (COX-2 [1]): inhibited
COX-2 expression in lung tissues (COX-2 [2]): suppresses
serum 5-MTP level at 24 h after administration [3]: several-fold over the basal level
serum 5-MTP level at 72 h [3]: returned to basal level
p300 HAT activity in lung tissues (p300 HAT): suppressed by 5-MTP
LPS-induced phosphorylation of NF-κB p65 (NF-κB p65): decreased
LPS-induced elevation of CXCL1 in serum (chemokines): blunted
LPS-induced elevation of MCP-1 in serum (chemokines): blunted
LPS-induced elevation of RANTES in serum (chemokines): blunted
LPS-induced elevation of eotaxin in serum (chemokines): blunted
total cell number in BALF (BALF total cell number): reduced by 5-MTP in a dose-dependent manner
